Earlier results as cited in patent US20070148194A1, “Novel nanoemulsion formulations” (priority 2005, published 2007).

Test system: HIV
Conditions: in vitro; read-out: anti-HIV activity in vitro, IC50

In the case of CC(C)(C)NC(=O)[C@@H]1C[C@@H]2CCCC[C@@H]2CN1C[C@@H](O)[C@H](Cc1ccccc1)NC(=O)[C@H](CC(N)=O)NC(=O)c1ccc2ccccc2n1 [SQV, Saquinavir], the IC50 is given as 0.02 µM.
